Laboratory results: the supplement of paper PMC10307832

Legend:
Assay in all cases: relative viability (nuclei count vs DMSO), 5 days (fraction); higher = more cells survive
NCI-H322M = system: NCI-H322M
Summary of the method: (§1)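 Relative viability was taken as the ratio of nuclei in treated wells to nuclei in vehicle wells. Lung cancer cell lines in 1536-well plates received compounds by pin tool one day after seeding, either one drug alone or a fixed anchor-drug dose plus five library-drug doses (not always all listed) in √10 steps. Nuclei were counted on 4× images after 5 days of treatment, and values are medians of duplicate plates.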

NCI-H838 = system: NCI-H838
Summary of the method: as §1

UMC-11 = system: UMC-11
Summary of the method: as §1

RERF-LC-KJ = system: RERF-LC-KJ
Summary of the method: as §1

ABC-1 = system: ABC-1
Summary of the method: as §1

NCI-H2023 = system: NCI-H2023
Summary of the method: as §1

A-427 = system: A-427
Summary of the method: as §1

NCI-H1793 = system: NCI-H1793
Summary of the method: as §1

NCI-H2009 = system: NCI-H2009
Summary of the method: as §1

NCI-H441 = system: NCI-H441
Summary of the method: as §1

NCI-H1944 = system: NCI-H1944
Summary of the method: as §1

HCC-15 = system: HCC-15
Summary of the method: as §1

NCI-H1915 = system: NCI-H1915
Summary of the method: as §1

NCI-H1734 = system: NCI-H1734
Summary of the method: as §1

SW 1573 = system: SW 1573
Summary of the method: as §1

NCI-H2347 = system: NCI-H2347
Summary of the method: as §1

EPLC-272H = system: EPLC-272H
Summary of the method: as §1

LC-2-ad = system: LC-2-ad
Summary of the method: as §1

LK-2 = system: LK-2
Summary of the method: as §1

NCI-H647 = system: NCI-H647
Summary of the method: as §1

NCI-H358 = system: NCI-H358
Summary of the method: as §1

`Cc1csc(=NC2CCCCC2)n1/N=C/c1ccc(O)c(O)c1O` [MIM1] + CS(=O)(=O)N1CCN(Cc2cc3nc(-c4cccc5[nH]ncc45)nc(N4CCOCC4)c3s2)CC1 [Pictilisib] (partner 1 µM) showed a relative viability (NCI-H322M; first compound 0.2 µM) of 0.565, a relative viability (NCI-H322M; first compound 0.6325 µM) of 0.497 and a relative viability (NCI-H322M; first compound 2 µM) of 0.511. For the same compound, the relative viability (NCI-H322M; first compound 6.325 µM) was 0.477, the relative viability (NCI-H322M; first compound 20 µM) was 0.698 and the relative viability (NCI-H838; first compound 0.2 µM) was 0.415. The relative viability (NCI-H838; first compound 0.6325 µM) was 0.468, the relative viability (NCI-H838; first compound 2 µM) was 0.397 and the relative viability (NCI-H838; first compound 6.325 µM) was 0.357. It also gave a relative viability (NCI-H838; first compound 20 µM) of 0.2, a relative viability (UMC-11; first compound 0.2 µM) of 0.753 and a relative viability (UMC-11; first compound 0.6325 µM) of 0.203. The relative viability (UMC-11; first compound 2 µM) was 0.853, the relative viability (UMC-11; first compound 6.325 µM) was 0.687 and the relative viability (UMC-11; first compound 20 µM) was 0.17. For the same compound, the relative viability (RERF-LC-KJ; first compound 0.2 µM) was 0.504, the relative viability (RERF-LC-KJ; first compound 0.6325 µM) was 0.488 and the relative viability (RERF-LC-KJ; first compound 2 µM) was 0.484. For the same compound, the relative viability (RERF-LC-KJ; first compound 6.325 µM) was 0.415, the relative viability (RERF-LC-KJ; first compound 20 µM) was 0.225 and the relative viability (ABC-1; first compound 0.2 µM) was 0.547. It also gave a relative viability (ABC-1; first compound 0.6325 µM) of 0.852, a relative viability (ABC-1; first compound 2 µM) of 0.722 and a relative viability (ABC-1; first compound 6.325 µM) of 0.286. It also gave a relative viability (ABC-1; first compound 20 µM) of 0.286, a relative viability (NCI-H2023; first compound 0.2 µM) of 0.238 and a relative viability (NCI-H2023; first compound 0.6325 µM) of 0.26. For the same compound, the relative viability (NCI-H2023; first compound 2 µM) was 0.226, the relative viability (NCI-H2023; first compound 6.325 µM) was 0.126 and the relative viability (NCI-H2023; first compound 20 µM) was 0.067. It also gave a relative viability (A-427; first compound 0.2 µM) of 0.659, a relative viability (A-427; first compound 0.6325 µM) of 0.469 and a relative viability (A-427; first compound 2 µM) of 0.671. The relative viability (A-427; first compound 6.325 µM) was 0.743, the relative viability (A-427; first compound 20 µM) was 0.214 and the relative viability (NCI-H1793; first compound 0.2 µM) was 0.402. It also gave a relative viability (NCI-H1793; first compound 0.6325 µM) of 0.314, a relative viability (NCI-H1793; first compound 2 µM) of 0.344 and a relative viability (NCI-H1793; first compound 6.325 µM) of 0.34. For the same compound, the relative viability (NCI-H1793; first compound 20 µM) was 0.217, the relative viability (NCI-H2009; first compound 0.2 µM) was 0.931 and the relative viability (NCI-H2009; first compound 0.6325 µM) was 0.812. It also gave a relative viability (NCI-H2009; first compound 2 µM) of 0.85, a relative viability (NCI-H2009; first compound 6.325 µM) of 0.582 and a relative viability (NCI-H2009; first compound 20 µM) of 0.173. The relative viability (NCI-H441; first compound 0.2 µM) was 0.541, the relative viability (NCI-H441; first compound 0.6325 µM) was 0.468 and the relative viability (NCI-H441; first compound 2 µM) was 0.539. The relative viability (NCI-H441; first compound 6.325 µM) was 0.382, the relative viability (NCI-H441; first compound 20 µM) was 0.147 and the relative viability (NCI-H1944; first compound 0.2 µM) was 0.394. For the same compound, the relative viability (NCI-H1944; first compound 0.6325 µM) was 0.335, the relative viability (NCI-H1944; first compound 2 µM) was 0.296 and the relative viability (NCI-H1944; first compound 6.325 µM) was 0.34. For the same compound, the relative viability (NCI-H1944; first compound 20 µM) was 0.384, the relative viability (HCC-15; first compound 0.2 µM) was 0.872 and the relative viability (HCC-15; first compound 0.6325 µM) was 0.455. The relative viability (HCC-15; first compound 2 µM) was 0.824, the relative viability (HCC-15; first compound 6.325 µM) was 0.53 and the relative viability (HCC-15; first compound 20 µM) was 0.11. It also gave a relative viability (NCI-H1915; first compound 0.2 µM) of 1, a relative viability (NCI-H1915; first compound 0.6325 µM) of 0.606 and a relative viability (NCI-H1915; first compound 2 µM) of 0.883. The relative viability (NCI-H1915; first compound 6.325 µM) was 0.708, the relative viability (NCI-H1915; first compound 20 µM) was 0.477 and the relative viability (NCI-H1734; first compound 0.2 µM) was 0.501. The relative viability (NCI-H1734; first compound 0.6325 µM) was 0.408, the relative viability (NCI-H1734; first compound 2 µM) was 0.442 and the relative viability (NCI-H1734; first compound 6.325 µM) was 0.351. The relative viability (NCI-H1734; first compound 20 µM) was 0.266, the relative viability (SW 1573; first compound 0.2 µM) was 0.478 and the relative viability (SW 1573; first compound 0.6325 µM) was 0.508. The relative viability (SW 1573; first compound 2 µM) was 0.592, the relative viability (SW 1573; first compound 6.325 µM) was 0.461 and the relative viability (SW 1573; first compound 20 µM) was 0.35. For the same compound, the relative viability (NCI-H2347; first compound 0.2 µM) was 0.885, the relative viability (NCI-H2347; first compound 0.6325 µM) was 0.733 and the relative viability (NCI-H2347; first compound 2 µM) was 0.72. The relative viability (NCI-H2347; first compound 6.325 µM) was 0.619, the relative viability (NCI-H2347; first compound 20 µM) was 0.359 and the relative viability (EPLC-272H; first compound 0.2 µM) was 0.355. The relative viability (EPLC-272H; first compound 0.6325 µM) was 0.339, the relative viability (EPLC-272H; first compound 2 µM) was 0.334 and the relative viability (EPLC-272H; first compound 6.325 µM) was 0.3. It also gave a relative viability (EPLC-272H; first compound 20 µM) of 0.235, a relative viability (LC-2-ad; first compound 0.2 µM) of 0.437 and a relative viability (LC-2-ad; first compound 0.6325 µM) of 0.373. The relative viability (LC-2-ad; first compound 2 µM) was 0.508, the relative viability (LC-2-ad; first compound 6.325 µM) was 0.406 and the relative viability (LC-2-ad; first compound 20 µM) was 0.12. It also gave a relative viability (LK-2; first compound 0.2 µM) of 0.581, a relative viability (LK-2; first compound 0.6325 µM) of 0.534 and a relative viability (LK-2; first compound 6.325 µM) of 0.561. For the same compound, the relative viability (LK-2; first compound 20 µM) was 0.269, the relative viability (NCI-H647; first compound 0.2 µM) was 0.379 and the relative viability (NCI-H647; first compound 0.6325 µM) was 0.578. The relative viability (NCI-H647; first compound 6.325 µM) was 0.42, the relative viability (NCI-H647; first compound 20 µM) was 0.191 and the relative viability (NCI-H358; first compound 0.2 µM) was 0.309. For the same compound, the relative viability (NCI-H358; first compound 0.6325 µM) was 0.271, the relative viability (NCI-H358; first compound 2 µM) was 0.254 and the relative viability (NCI-H358; first compound 6.325 µM) was 0.247. For the same compound, the relative viability (NCI-H358; first compound 20 µM) was 0.262.
